The source of these data is PMC7181960 (ChemMedChem, 2019).

Like-named read-outs stand apart in the source and are kept apart here.

Assay [1] has as its system Vascular Endothelial Growth Factor (VEGF). The experiment in a line: Immunofluorescent analysis of VEGF level in PC3 cells. In kind it is cell-based, human. As to conditions: PC3, IC20 concentration, 24 h incubation.
Assay [2] has as its system PC3 cells. The experiment in a line: Cell death assay. The class given is cell-based, human. As to conditions: PC3, IC50 concentration, 72 h, flow cytometry.
Assay [3] relates to IMR-90. As to conditions: read-out: IC50 IMR-90; 72 h incubation; values previously reported, ref [10]; cited from earlier work.
Assay [4] has as its system PC3. In words: PrestoBlue Cell Viability assay, 72 h. As to conditions: read-out: IC50 PC3, 72 h incubation. The class given is cell-based, human.
For assay [5], the system named is Caki-1. The following applies: read-out: IC50 Caki-1; 72 h incubation; values previously reported, ref [10]; cited from earlier work.
Assay [6] concerns PC3 cells. The following applies: previously described, ref [16]; cited from earlier work.
In assay [7] the test system is Caki-1. In words: PrestoBlue Cell Viability assay, 72 h. The following applies: read-out: IC50 Caki-1, 72 h incubation.

Consider `CC(=O)OC[C@H]1O[C@@H]([S-])[C@H](OC(C)=O)[C@@H](OC(C)=O)[C@@H]1OC(C)=O.CCP(CC)CC.[Au+]` [Auranofin], for which the “reduction of VEGF” value in assay [1] is reported as 50%. In addition, the “apoptosis, % of the cell population” value in assay [2] is given as 73%. The IC50 in assay [3] is 3.7 ± 0.4 µM; in assay [4] it was 3.6 ± 0.005 µM; in assay [5] it was 2.8 ± 0.6 µM.
In the case of `N.N.[Cl][Pt][Cl]` [Cisplatin], the values for the IC50 in assay [3], in assay [4] and in assay [5] were 3.9 ± 0.5 µM, 6.7 ± 2.8 µM and 23.9 ± 2.4 µM, respectively.
On to `COc1ccc(C[C]2([Ti+2][C]3(Cc4ccc(OC)cc4)C=CC=C3)C=CC=C2)cc1.[Cl-].[Cl-]` [Titanocene-Y], for which, in assay [6], the reduction of migration was 19%. Further, the figures for the IC50 in assay [7] and in assay [4] were 29.4 ± 4.2 µM and 58.1 ± 11.2 µM, respectively.
